According to US6642276B2, “Controlled release macrolide pharmaceutical formulations” (M/S Ind-Swift Limited, priority 2001, dated 2003):

Experiments:
Format in all cases: physicochemical
[1] = pH solubility studies (mg of drug dissolved per ml of buffer)
[2] = pH of 0.2% suspension in water: methanol (19:1)
[3] = Stability studies of bulk drug, physical mixture and citrate salt on storage

pH solubility studies (mg of Clarithromycin dissolved per ml of buffer) ([1]; pH 3.0 (KCl Buffer)): 2.00 mg/ml
pH solubility studies (mg of Clarithromycin dissolved per ml of buffer) ([1]; pH 4.0 (KCl Buffer)): 0.33 mg/ml
pH solubility studies (mg of Clarithromycin dissolved per ml of buffer) ([1]; pH 5.0 (Phosphate Buffer)): 10.09 mg/ml
pH solubility studies (mg of Clarithromycin dissolved per ml of buffer) ([1]; pH 6.0 (Phosphate Buffer)): 7.46 mg/ml
pH solubility studies (mg of Clarithromycin dissolved per ml of buffer) ([1]; pH 7.0 (Phosphate Buffer)): 2.00 mg/ml
pH of 0.2% suspension in water: methanol (19:1) [2]: 7.5 to 10.0
Stability Studies: change / Degradation of Clarithromycin ([3]; 40° C. and 75% RH-2 Months): No Change/No
Stability Studies: change / Degradation of Clarithromycin ([3]; 40° C. and 75% RH-3 Months): No Change/No
Stability Studies: change / Degradation of Clarithromycin ([3]; 40° C. and 75% RH-4 Months): No Change/No
Stability Studies: change / Degradation of Clarithromycin ([3]; 40° C. and 75% RH-5 Months): No Change/No
Stability Studies: change / Degradation of Clarithromycin ([3]; 60° C.-1 month): No Change/No
Stability Studies: change / Degradation of Clarithromycin ([3]; 60° C.-2 months): No Change/No
Stability Studies: change / Degradation of Clarithromycin ([3]; 60° C.-3 months): No Change/No
Stability Studies: change / Degradation of Clarithromycin ([3]; 85° C.-1 day): No Change/No
Stability Studies: change / Degradation of Clarithromycin ([3]; 85° C.-4 days): No Change/No
Stability Studies: change / Degradation of Clarithromycin ([3]; 85° C.-7 days): No Change/No
Stability Studies: change / Degradation of Clarithromycin ([3]; 85°-15 days): No Change/No
Stability Studies: change / Degradation of Clarithromycin ([3]; RT-3 Months): No Change/No
Stability Studies: change / Degradation of Clarithromycin ([3]; RT-6 Months): No Change/No
Stability Studies: change / Degradation of Clarithromycin ([3]; RT-9 Months): No Change/No
Stability Studies: change / Degradation of Clarithromycin ([3]; RT-12 Months): No Change/No
SMILES: CC[C@H]1OC(=O)[C@H](C)[C@@H](O[C@H]2C[C@@](C)(OC)[C@@H](O)[C@H](C)O2)[C@H](C)[C@@H](O[C@@H]2O[C@H](C)C[C@H](N(C)C)[C@H]2O)[C@](C)(OC)C[C@@H](C)C(=O)[C@H](C)[C@@H](O)[C@]1(C)O [Clarithromycin, 6-O-methylerythromycinA]
